# Experimental data published in paper PMC6384730, “Systematic Identification of Thiosemicarbazides for Inhibition of Toxoplasma gondii Growth In Vitro” (Molecules, 2019).
# Values joined by “and” are separate entries in the source; they are usually repeats but may differ in a detail not shown here. Identical values can stand only once. Like-named read-outs stand apart in the source and are kept apart here.
# What was measured:
# [1] = test system: T. gondii RH tachyzoites; assay: Influence on T. gondii proliferation ([3H]uracil incorporation) in infected Vero cells; type: cell-based, Toxoplasma gondii; conditions: for IC50: Toxoplasma gondii, Vero
# Method: Vero cell line (African green monkey kidney) (ATCC® CCL-81™) were maintained in EMEM (EMEM/10%HIFBS/P/S) (Eagle’s Minimum Essential Medium—ATCC® 30-2003™) culture medium supplemented with 10% HIFBS (Heat-Inactivated (1 h in 56°C) Fetal Bovine Serum—ATCC), 100 U/mL penicillin, 100 μg/mL streptomycin. The cell line was trypsinized (using Trypsin-EDTA Solution, 1X ATCC® 30-2101™) twice a week, and seeded at density 1 × 10^6 per T25 cell culture flask (Falcon), and incubated for 24–48 h at 37 °C and 5 CO2 to achieve a confluent monolayer. The highly virulent RH strain of Toxoplasma gondii, haplogroup I (ATCC® PRA-310™) were maintained as tachyzoites according to the ATCC product sheet, in DMEM (Dulbecco’s Modified Eagle’s Medium—ATCC® 30-2002™) (DMEM/3%HIFBS/P/S—parasite culture medium) under condition 37 °C and 5 CO2 and passage twice per week.
# The Vero cells were seeded on 96-well plates (1 × 10^5 cells/100 µL/well) in EMEM/10%HIFBS/P/S. After 24 h of incubation medium was removed and then T. gondii RH tachyzoites were added to the cell monolayers at density 1 × 10^5 cells/100 µL/well in DMEM/3%HIFBS/P/S. One hour later different compounds and sulfadiazine dilutions (100 µL/well) in parasite culture medium were added to the cell monolayers with T. gondii. After subsequent 24 h of incubation 1 µCi/well [5,6-^3H] uracil (Moravek Biochemicals Inc., Brea, CA, USA) was applied to each microculture for further 72 h. The amount of the isotope incorporated into the parasite nucleic acid pool, corresponding to the parasite growth, was measured by liquid scintillation counting using 1450 Microbeta Plus Liquid Scintillation Counter (Wallac Oy, Turku, Finland). The results were expressed as counts per minute (CPM) and transformed to the percentage of viability compared to untreated cells. All experiments were performed in triplicate.
# [2] = MTT cell viability (cytotoxicity) assay on L929 cells; type: cell-based, mouse; conditions: mouse, 24 h, % of untreated cells; for viability at 24 h, 62.5 µg/mL: 62.50 µg/mL
# Method: (§1) Cells were trypsinized twice a week, and seeded at density 1 × 10^6 per T25 cell culture flask, and incubated for 24-48 h at 37 °C and 10% CO2 to achieve a confluent monolayer. […] The final concentration of DMSO in compounds dilutions was not higher than 1.00%. […] Dilution of the all compounds 2-22 and drug were freshly prepared before the cells were exposed. […] The MTT assay was used according to international standards: ISO 10993-5:2009(E), Biological evaluation of medical devices, Part 5: Tests for in vitro cytotoxicity. […] Afterward, the culture medium in the plates was replaced by 100 μL of compounds and sulfadiazine suspension and the cells were exposed for 24 h. Then, 1 mg/mL of MTT solution in RPMI 1640 without phenol red was prepared and 50 μL of the solution was added to each well and incubated at 37 °C, 10% CO2 for 2 h. Mitochondrial dehydrogenases of viable cells reduced the yellowish water-soluble MTT to water-insoluble formazan crystals, which were solubilized with dimethyl sulfoxide (DMSO). The cell culture medium was aspirated cautiously, after which 150 μL DMSO was added to each well, the plates were gently mixed, then 25 μL 0.1 M glycine buffer (pH = 10.5) (Sigma) was added. Optical density was read on the ELISA reader (Multiskan EX, Labsystems, Vienna, VA, USA) at 570 nm. The results were expressed as the percentage of viability compared to untreated cells. All experiments were performed in triplicate. Moreover, cells were treated with 4.0-0.03% concentration of DMSO as a compounds solvent (data not shown).
# [3] = test system: L929 cells; assay: as above; type: cell-based, mouse; conditions: L929 cells, 24 h exposure
# Method: as §1
# [4] = RH tachyzoites in Vero cells, [3H]uracil incorporation, highest concentration tested 125 µg/mL, read-out: IC50 (50% inhibition of T. gondii proliferation in vitro)
melting point,Structure (SMILES),"IC50 [1, 4]","viability at 24 h, 3.91 µg/mL ([2]; L929 mouse fibroblast cells)","viability at 24 h, 7.81 µg/mL ([2]; L929 mouse fibroblast cells)","viability at 24 h, 15.63 µg/mL ([2]; L929 mouse fibroblast cells)","viability at 24 h, 31.25 µg/mL ([2]; L929 mouse fibroblast cells)","viability at 24 h, 62.5 µg/mL ([2]; L929 mouse fibroblast cells)","viability at 24 h, 125 µg/mL ([2]; L929 mouse fibroblast cells)","viability at 24 h, 250 µg/mL ([2]; L929 mouse fibroblast cells)","viability at 24 h, 500 µg/mL ([2]; L929 mouse fibroblast cells)",CC30 (concentration required for 30% cells proliferation inhibition) [3],other results
215 to 217 °C,"Cc1nc[nH]c1C(=O)NNC(=S)Nc1ccccc1[N+](=O)[O-] [Compound 2, 1-(4-Methylimidazol-5-oyl)-4-(2-nitrophenyl)thiosemicarbazide]",43 µg/mL,103%,101%,96.7%,94.6%,89.7%,75.3%,53.4%,29.1%,181.55 µg/mL,–
–,"Cc1nc[nH]c1C(=O)NNC(=S)Nc1cccc([N+](=O)[O-])c1 [Compound 3, 1-(4-Methylimidazol-5-oyl)-4-(3-nitrophenyl)thiosemicarbazide]",14.8 µg/mL,95.4%,94.6%,94.6%,89.4%,79%,72.4%,55.8%,15.3%,141.25 µg/mL,–
235 to 237 °C,"Cc1nc[nH]c1C(=O)NNC(=S)Nc1ccc([N+](=O)[O-])cc1 [Compound 4, 1-(4-Methylimidazol-5-oyl)-4-(4-nitrophenyl)thiosemicarbazide]",21.6 µg/mL,98.5%,95.7%,95.1%,93.1%,88.9%,79.6%,66.9%,23.2%,238.78 µg/mL,"fold more potent than sulfadiazine ([1]; T. gondii proliferation, IC50 ratio): 184 fold"
–,"COc1ccccc1NC(=S)NNC(=O)c1[nH]cnc1C [Compound 5, 4-(2-Methoxyphenyl)-1-(4-methylimidazol-5-oyl)thiosemicarbazide]",33.1 µg/mL,95.8%,91.9%,89%,86.5%,78.5%,69.7%,63.1%,53.6%,138.04 µg/mL,–
196 to 198 °C,"COc1cccc(NC(=S)NNC(=O)c2[nH]cnc2C)c1 [Compound 6, 4-(3-Methoxyphenyl)-1-(4-methylimidazol-5-oyl)thiosemicarbazide]",79.7 µg/mL,92.8%,88.6%,86.2%,83.3%,79.7%,68.8%,67.3%,56.8%,165.96 µg/mL,–
–,COc1ccc(NC(=S)NNC(=O)c2nc[nH]c2C)cc1 [Compound 7],114 µg/mL,95.1%,90.3%,89.5%,87.7%,85.8%,84%,70.7%,68.6%,389.05 µg/mL,–
–,"Cc1nc[nH]c1C(=O)NNC(=S)NCc1ccccc1 [Compound 8, 4-Benzyl-1-(4-methylimidazol-5-oyl)thiosemicarbazide]",–,101%,99.4%,96.5%,92%,88.8%,64.9%,53.3%,46.6%,123.03 µg/mL,"IC50 ([1]; IC50 greater than 125 µg/mL (highest concentration tested), calculated by extrapolation of the curves (GraphPad Prism), read-out: IC50 (50% inhibition of T. gondii proliferation in vitro), extrapolated): ~150 µg/mL"
203 to 205 °C,"Cc1nc[nH]c1C(=O)NNC(=S)Nc1cccc(Cl)c1 [Compound 10, 4-(3-Chlorophenyl)-1-(4-methylimidazol-5-oyl)thiosemicarbazide]",25.7 µg/mL,95.7%,94.1%,93.5%,74.6%,72.1%,69.9%,61.8%,22.1%,112.20 µg/mL,–
–,"CC(=O)c1cccc(NC(=S)NNC(=O)c2[nH]cnc2C)c1 [Compound 12, 4-(3-Acetylphenyl)-1-(4-methylimidazol-5-oyl)thiosemicarbazide]",95.5 µg/mL,106%,104%,103%,101%,99.3%,96.7%,76.8%,56.2%,206.54 µg/mL,–
–,"Cc1nc[nH]c1C(=O)NNC(=S)Nc1cc(F)ccc1F [Compound 15, 4-(2,5-Difluorophenyl)-1-(4-methylimidazol-5-oyl)thiosemicarbazide]",53.1 µg/mL,105%,102%,101%,96.2%,84.3%,74.8%,65.2%,51.2%,158.49 µg/mL,"IC50 (50% inhibition of T. gondii proliferation in vitro) ([1]; RH tachyzoites in Vero cells, [3H]uracil incorporation, highest concentration tested 125 µg/mL): 53.70 µg/mL"
–,Cc1ccc(NC(=S)NNC(=O)c2[nH]cnc2C)cc1 [Compound 18],~57.6 µg/mL,99.1%,91.7%,82%,69%,64.6%,63.7%,60.4%,53%,34.67 µg/mL,–
–,"CCOc1ccc(NC(=S)NNC(=O)c2[nH]cnc2C)cc1 [Compound 21, 4-(4-Ethoxyphenyl)-1-(4-methylimidazol-5-oyl)thiosemicarbazide]",95.3 µg/mL,115%,114%,112%,106%,101%,84.3%,82.3%,72%,500.00 µg/mL and 500 µg/mL,–

Structure (SMILES),melting point,"IC50 [1, 4]","viability at 24 h, 3.91 µg/mL ([2]; L929 mouse fibroblast cells)","viability at 24 h, 7.81 µg/mL ([2]; L929 mouse fibroblast cells)","viability at 24 h, 15.63 µg/mL ([2]; L929 mouse fibroblast cells)","viability at 24 h, 31.25 µg/mL ([2]; L929 mouse fibroblast cells)","viability at 24 h, 62.5 µg/mL ([2]; L929 mouse fibroblast cells)","viability at 24 h, 125 µg/mL ([2]; L929 mouse fibroblast cells)","viability at 24 h, 250 µg/mL ([2]; L929 mouse fibroblast cells)","viability at 24 h, 500 µg/mL ([2]; L929 mouse fibroblast cells)",CC30 (concentration required for 30% cells proliferation inhibition) [3],other results
Cc1nc[nH]c1C(=O)NNC(=S)NCCCl [Compound 9],175 to 177 °C,–,–,–,–,–,–,–,–,–,>500.00 µg/mL and >500 µg/mL,"IC50 ([1]; read-out: IC50 (50% inhibition of T. gondii proliferation in vitro)): > 125 µg/mL; viability at 24 h, 3.91 µg/mL [2]: 100%; viability at 24 h, 7.81 µg/mL [2]: 98.3%; viability at 24 h, 15.63 µg/mL [2]: 97.1%; viability at 24 h, 31.25 µg/mL [2]: 96%; viability at 24 h, 62.5 µg/mL [2]: 95.6%; viability at 24 h, 125 µg/mL [2]: 94.4%; viability at 24 h, 250 µg/mL [2]: 92.8%; viability at 24 h, 500 µg/mL [2]: 87.4%"
